Experiments:
[1] = system: liver cancer; conditions: liver cancer patients, phase III; cited from earlier work
[2] = system: NCI-H1648; experiment: Cell proliferation assay (Alamar Blue); assay type: cell-based; conditions: Homo sapiens, 144 h; NCI-H1648 tumor cell line; 6 days culture
Description: (§1) 1. Instruments and Materials • Thermo 311 CO2 incubator; Haier biosafety cabinet; Molecular Devices microplate reader; Xiangyi brand L530 desktop low speed centrifuge; Olympus IX51 inverted fluorescence microscope, DMEM, RPMI 1640, MEM, DMEM/F12 1:1 medium, Fetal bovine serum, 0.25% trypsin solution, phosphate buffer (Thermo Fisher Shanghai Co., Ltd.); sigma dimethyl sulfoxide (DMSO), resazurin; 54 commercial tumor cell lines (including 26 liver cancer cell lines). Experimental drugs: compounds 1-12 and active drug Linifanib; chemotherapeutic drug Doxorubicin (HY-15142; Shanghai Qianyuan Biomedical Technology Co., Ltd.).
(§2) 2. Experimental Methods • 2.1 Cultivation of Different Cell Lines • 54 cell lines were cultured in a culture medium containing fetal bovine serum and placed in a 5% CO2 incubator at 37° C. for incubation. The cells were all grown in an adherent state, and the growth was observed under an inverted microscope, and subculture was performed when the cell confluence rate reached 80%-90%. The proportion and quantity of passage were determined by experimental needs. The ratio of subculture of this cell line was generally 1:2^˜1:3. • 2.2 Inhibition Effect on the Proliferation of Different Tumor Cell Lines • Cell test: 54 cell lines in logarithmic growth phase were inoculated in 96-well culture plates at 500^˜1×10^4/well (the optimal seeding density of each cell line was determined in pre-experiment), After incubating at 37° C. for 4 h in a 5% CO2 humidification incubator, added 10 μL of compounds 1-12 or Linifanib to each well, and tested 9 drug concentration gradients for each compound (diluted from the highest concentration of the test by 3.16 times). The solubility of each compound was different at a starting concentration of 100 or 30 μM, respectively. The QC reference compound Doxorubicin was added simultaneously to each cell line test, and the final drug concentrations were 10, 3.16, 1, 0.31, 0.1, 0.03, 0.01, 0.003, and 0.001 μM, respectively. In addition, a positive control group (100% inhibition) and a negative control group (0% inhibition) were set at the same time. The drug group was repeated for 2 wells per concentration, and the positive control group and the negative control group were repeated for 6 wells. After the culture was continued for 6 days in the incubator, AlamarBlue test operation was followed; • AlamarBlue test procedure: Incubated with 10 μL of AlamarBlue reagent per well for 1-4 h, shook for 1-2 min, MD microplate reader EX: 560 nm, EM: 590 nm wavelength to measure fluorescence, recorded the results, calculated the cell inhibition rate of the compound of the invention. Cell inhibition rate (%)=(A0% inhibition−A administration)/(A0% inhibition−A100% inhibition)×100%, and then using the method of nonlinear regression using GraphPad Prism 5.0 or MATILAB software (usually using four parameters) to graph and obtain a drug dose response curve to obtain an IC50 value of the compound of the present invention acting on a cancer cell line.

[3] = system: NCI-H1703; experiment: Cell proliferation assay (Alamar Blue); assay type: cell-based; conditions: Homo sapiens, 144 h; NCI-H1703 (lung cancer cells); 6 days culture
Description: as §1, §2

[4] = system: NCI-H2170; experiment: Cell proliferation assay (Alamar Blue); assay type: cell-based; conditions: Homo sapiens, 144 h; NCI-H2170 tumor cell line; 6 days culture
Description: as §1, §2

[5] = system: NCI-H526; experiment: Cell proliferation assay (Alamar Blue); assay type: cell-based; conditions: Homo sapiens, 144 h; NCI-H526 tumor cell line; 6 days culture
Description: as §1, §2

[6] = system: NCI-H661; experiment: Cell proliferation assay (Alamar Blue); assay type: cell-based; conditions: Homo sapiens, 144 h; NCI-H661 tumor cell line; 6 days culture
Description: as §1, §2

[7] = system: NCI-H716; experiment: Cell proliferation assay (Alamar Blue); assay type: cell-based; conditions: Homo sapiens, 144 h; NCI-H716 tumor cell line; 6 days culture
Description: as §1, §2

Structure (SMILES)	ORR (overall response rate) [1] [%]	TTP (time to progression) [1] [months]	IC50 [2] [µM]	IC50 [3] [nM]	IC50 [4] [µM]	IC50 [5] [µM]	IC50 [6] [µM]	IC50 [7] [µM]	toxicity and side effects [1]
CNC(=O)c1cc(Oc2ccc(NC(=O)Nc3ccc(Cl)c(C(F)(F)F)c3)cc2)ccn1 [Sorafenib]	6.9	4.0							
Cc1ccc(F)c(NC(=O)Nc2ccc(-c3cccc4[nH]nc(N)c34)cc2)c1 [Linifanib, reference compound]			7.17	20	4	7.8	13.3	4.1	greater than Sorafenib

From patent publication US11712434B2, “Compound having anti-cancer effect, and preparation method therefor and use thereof” (3D MEDICINES (BEIJING) CO., LTD., priority 2016, dated 2023)
